Measurements taken from PubChem BioAssay AID1919001 (Molecular Pharmacology Branch, DTP, NCI, 2023).
Where “and” joins values, the source holds several entries; their conditions need not be identical. Equal values may be shown once.

Tested on: 699152-130-R-J1-PDC complex spheroid growth
Assay: Anticancer human tumor 699152-130-R-J1-PDC patient-derived pancreatic carcinoma cell line growth inhibition [AhR]
Settings: for viability, T/C: stronger effect = lower value
From the text: Multicellular complex tumor spheroid response to aryl hydrocarbon receptor antagonists in combination with a variety of drugs and investigational agents in selected tumor cell lines
The current study was undertaken to assess response to aryl hydrocarbon receptor antagonists in combination with standard-of-care drugs and investigational agents in solid tumor complex spheroid models. Complex spheroids include a stromal component modeled by human endothelial cells (HUVEC) and fibroblasts modeled by human mesenchymal stem cells (MSCs). The concentration ranges selected for each drug and investigational agent were based upon clinically achievable concentrations if the clinical Cmax of the agent was known.
Compounds. The drugs and investigational agents: BAY 2416964 (NSC825713), GNF351 (NSC835774), CH-223191 (NSC835775), CPI-455 (NSC825282), aza-TdCyd (NSC777586), decitabine (NSC127716), belinostat (NSC758774), entinostat (NSC756642), pevonedistat (NSC761192), tazemetostat (NSC777109), talazoparib (NSC765396), olaparib (NSC753686), selinexor (NSC780203), nedisertib (M3814, NSC802822), bortezomib (NSC756655), venetoclax (NSC766270), doxorubicin (NSC123127), elimusertib (BAY189344, NSC800525), ceralasertib (AZD6738, NSC777638), TAK-243 (NSC785004), alisertib (NSC759677), etoposide (NSC141540), topotecan (NSC609699), eribulin (NSC707389), gemcitabine (NSC613327), carboplatin (NSC241240), cisplatin (NSC119875), and SN-38 (NSC673596) were obtained from the National Cancer Institute (NCI) Developmental Therapeutics Program Chemical Repository (32). The FDA-approved anticancer drug set is available from the Developmental Therapeutics Program at https://dtp.cancer.gov/organization/dscb/obtaining/available plates.htm. […] The stock solutions were prepared in dimethyl sulfoxide (DMSO, Sigma-Aldrich, St. Louis, MO, cat. D2650), except for the platinum compounds which were prepared in saline (Quality Biological, Gaithersburg, MD, cat. 114-055-101), at 800-fold the tested concentration and stored at -70 degrees C prior to their use. All drugs and investigational agents were tested over a range starting from a high concentration at or near the clinical Cmax and decreasing in half-log increments. If the clinical Cmax for an agent had not been determined, the highest concentration tested was 10 microM (Table 1).
Cell Culture. All cells were maintained in an incubator at 37 degrees C and 5% CO2 with 95% humidity. The PDC lines were cultured according to standard operating procedures established by the NCI PDMR (https://pdmr.cancer.gov). Briefly, all PDCs were thawed and cultured in Matrigel-coated flasks prepared with a working solution of 1X Ham's F-12 nutrient mix, without supplementation (Invitrogen, Waltham, MA, cat. 11765054), 100 U/mL penicillin-streptomycin (Invitrogen, cat. 15140122), and 2.5% Matrigel (Corning Inc., Corning, NY, cat. 354248) for the first three passages. All PDCs were cultured in complete DMEM/F-12 media containing advanced DMEM/F-12 (Invitrogen, cat. 12634028), 4.9% defined fetal bovine serum, heat inactivated (HyClone Laboratories Inc., Logan, UT, cat. SH30070.03HI), 389 ng/mL hydrocortisone (Sigma-Aldrich, cat. H4001), 9.7 ng/mL human EGF recombinant protein (Invitrogen, cat. PHG0313), 23.4 microg/mL adenine (Sigma-Aldrich, cat. A2786), 97.3 U/mL penicillin-streptomycin (Invitrogen, cat. 15140122), 1.9 mM L-glutamine (Invitrogen, cat. 25030081), and 9.7 microM Y-27632 dihydrochloride (Tocris Bioscience, Bristol, United Kingdom, cat. 1254). The PDCs were cultured in complete DMEM/F12 media without 10 microM Y-27632 dihydrochloride for at least two passages prior to the screen. The established cell lines NCI-H1341 and […] were cultured in DMEM/F-12, HEPES (Invitrogen, cat. 11330032), 5% defined fetal bovine serum (HyClone Laboratories Inc., cat. SH30070.03), ITS premix universal culture supplement [insulin (5 microg/mL), transferrin (5 microg/mL), and selenious acid (5 ng/mL)] […]
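Also: compound exposure lasted 7 days after spheroids had grown for 3 days.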

COc1ccc([C@@H](O)c2cc(-c3ncnc4cc(N5CCOCC5)ccc34)c(F)cc2Cl)nn1
viability, T/C (compound 0.0316 µM): 94.1% and 90.8% and 102% | viability, T/C (compound 0.1 µM): 93.3% and 98.1% and 115% | viability, T/C (compound 0.316 µM): 93.6% and 91.3% and 90.6% | viability, T/C (compound 1 µM): 79.1% and 78.4% and 71.7% | viability, T/C (compound 3.16 µM): 60.8% and 57.4% and 59.3% | viability, T/C (compound 10 µM): 33.6% and 28.5% and 30.6% | IC50 (curve of compound): 4.91 µM and 4.15 µM and 3.98 µM

COc1cccc2c1C(=O)c1c(O)c3c(c(O)c1C2=O)CC(O)(C(=O)CO)CC3OC1CC(N)C(O)C(C)O1 (stereo not drawn)
viability, T/C (compound 0.0316 µM): 71.1% and 70.4% and 82.5% | viability, T/C (compound 0.1 µM): 64.3% and 56.2% and 87.1% | viability, T/C (compound 0.316 µM): 48.5% and 41.1% and 55.1% | viability, T/C (compound 1 µM): 30.3% and 29.7% and 31.8% | viability, T/C (compound 3.16 µM): 3.77% and 2.01% and 2.55% | viability, T/C (compound 10 µM): 8.13% and 7.62% and 11.8% | IC50 (curve of compound): 0.319 µM and 0.179 µM and 0.444 µM

Cc1ccccc1N=Nc1ccc(NC(=O)c2ccnn2C)c(C)c1
IC50 (compound alone, run of 07/26/2022): > 10 µM

Cc1cncc(-c2nc(NCCc3c[nH]c4ccccc34)c3ncn(C(C)C)c3n2)c1
viability, T/C (compound 0.1 µM): 97.9% [middle of 20 runs]

Cn1ncnc1C1c2n[nH]c(=O)c3cc(F)cc(c23)NC1c1ccc(F)cc1 (stereo not drawn)
viability, T/C (compound 0.000316 µM): 103% and 92% and 97.7% | viability, T/C (compound 0.001 µM): 100% and 90.9% and 98.2% | viability, T/C (compound 0.00316 µM): 109% and 95.2% and 113% | viability, T/C (compound 0.01 µM): 101% and 102% and 111% | viability, T/C (compound 0.0316 µM): 102% and 100% and 97.5% | viability, T/C (compound 0.1 µM): 104% and 86.2% and 91% | IC50 (curve of compound): > 0.1 µM

NS(=O)(=O)OCC1CC(n2ccc3c(NC4CCc5ccccc54)ncnc32)CC1O (stereo not drawn)
viability, T/C (compound 0.0316 µM): 96.1% and 125% and 117% | viability, T/C (compound 0.1 µM): 123% and 111% and 125% | viability, T/C (compound 0.316 µM): 127% and 113% and 129% | viability, T/C (compound 1 µM): 67.1% and 38% and 43.2% | viability, T/C (compound 3.16 µM): 18.2% and 19.7% and 24.9% | viability, T/C (compound 10 µM): 20.3% and 24% and 29.6% | IC50 (curve of compound): 1.51 µM and 0.832 µM and 0.802 µM

Nc1ccccc1NC(=O)c1ccc(CNC(=O)OCc2cccnc2)cc1
viability, T/C (compound 0.0316 µM): 91.4% and 87.2% and 106% | viability, T/C (compound 0.1 µM): 96.6% and 89.1% and 109% | viability, T/C (compound 0.316 µM): 96.1% and 93.6% and 116% | viability, T/C (compound 1 µM): 97.1% and 103% and 95% | viability, T/C (compound 3.16 µM): 76.1% and 86% and 93.4% | viability, T/C (compound 10 µM): 39.1% and 38.4% and 42.8% | IC50 (curve of compound): 7.13 µM and 7.65 µM and 8.49 µM

Nc1ccn(C2OC(CO)C(O)C2(F)F)c(=O)n1 (stereo not drawn)
viability, T/C (compound 0.0316 µM): 74.1% and 75.2% and 60.5% | viability, T/C (compound 0.1 µM): 65.7% and 65.9% and 56.8% | viability, T/C (compound 0.316 µM): 48.5% and 56.9% and 47.4% | viability, T/C (compound 1 µM): 51.8% and 50.9% and 45.2% | viability, T/C (compound 3.16 µM): 42.4% and 53.5% and 42.6% | viability, T/C (compound 10 µM): 39.8% and 48.5% and 36.5%

Nc1ncn(C2CC(O)C(CO)O2)c(=O)n1 (stereo not drawn)
viability, T/C (compound 0.00316 µM): 93.4% and 101% and 95.4% | viability, T/C (compound 0.01 µM): 104% and 93.1% and 106% | viability, T/C (compound 0.0316 µM): 93.1% and 93% and 94.8% | viability, T/C (compound 0.1 µM): 91% and 96.5% and 87.2% | viability, T/C (compound 0.316 µM): 96.5% and 84.4% and 102% | viability, T/C (compound 1 µM): 92.9% and 87.3% and 89% | IC50 (curve of compound): > 1 µM

Nc1ncn(C2CC(O)C(CO)S2)c(=O)n1 (stereo not drawn)
viability, T/C (compound 0.000949 µM): 98% and 103% and 102% | viability, T/C (compound 0.003 µM): 105% and 110% and 111% | viability, T/C (compound 0.00949 µM): 97% and 102% and 112% | viability, T/C (compound 0.03 µM): 99.5% and 104% and 110% | viability, T/C (compound 0.0949 µM): 110% and 101% and 95.2% | viability, T/C (compound 0.3 µM): 111% and 96.2% and 102% | IC50 (curve of compound): > 0.3 µM

O=C(C=Cc1cccc(S(=O)(=O)Nc2ccccc2)c1)NO
viability, T/C (compound 0.0316 µM): 107% and 91.2% and 102% | viability, T/C (compound 0.1 µM): 114% and 101% and 110% | viability, T/C (compound 0.316 µM): 106% and 114% and 116% | viability, T/C (compound 1 µM): 106% and 116% and 112% | viability, T/C (compound 3.16 µM): 106% and 107% and 116% | viability, T/C (compound 10 µM): 86.2% and 96.8% and 77.4% | IC50 (curve of compound): > 10 µM

O=C(C=Cn1cnc(-c2cc(C(F)(F)F)cc(C(F)(F)F)c2)n1)NNc1cnccn1
viability, T/C (compound 0.00949 µM): 99.1% and 89.9% and 89% | viability, T/C (compound 0.03 µM): 98.2% and 95.7% and 107% | viability, T/C (compound 0.0949 µM): 92% and 79.8% and 82.9% | viability, T/C (compound 0.3 µM): 73.7% and 77.4% and 74.8% | viability, T/C (compound 0.949 µM): 69.4% and 79.6% and 90% | viability, T/C (compound 3 µM): 77.4% and 72.9% and 69.9% | IC50 (curve of compound): > 3 µM

O=C(c1cc(Cc2n[nH]c(=O)c3ccccc23)ccc1F)N1CCN(C(=O)C2CC2)CC1
viability, T/C (compound 0.0316 µM): 98.3% and 101% and 99.8% | viability, T/C (compound 0.1 µM): 104% and 105% and 98.3% | viability, T/C (compound 0.316 µM): 101% and 95% and 92% | viability, T/C (compound 1 µM): 104% and 102% and 95.3% | viability, T/C (compound 3.16 µM): 98.9% and 93% and 89.2% | viability, T/C (compound 10 µM): 103% and 82.8% and 83.2% | IC50 (curve of compound): > 10 µM
